Results as given in the kinase profiling compilation of Christmann-Franck et al. (2016).

What was measured:
Test in all cases: radiometric filter-binding kinase assay
[1] = test system: AKT2 (human), P31751 [S474D]
[2] = target: BRSK1 (human) (UniProt Q8TDC3)
[3] = target: CAMKK2 (human) (UniProt Q96RR4)
[4] = target: CLK2 (human) (UniProt P49760)
[5] = target: CSK (human) (UniProt P41240)
[6] = target: CSNK1D (human) (UniProt P48730)
[7] = target: DYRK3 (human) (UniProt O43781)
[8] = target: EPHA2 (human) (UniProt P29317)
[9] = target: FGFR1 (human) (UniProt P11362)
[10] = target: FLT1 (human) (UniProt P17948)
[11] = target: GSK3B (human) (UniProt P49841)
[12] = target: HIPK1 (human) (UniProt Q86Z02)
[13] = target: HIPK3 (human) (UniProt Q9H422)
[14] = target: IGF1R (human) (UniProt P08069)
[15] = target: INSR (human) (UniProt P06213)
[16] = target: IRAK4 (human) (UniProt Q9NWZ3)
[17] = target: JAK2 JH1 JH2 (human) (UniProt O60674)
[18] = test system: LCK (mouse); settings: accession and sequence are those of the human protein
[19] = target: MAP3K1 (human) (UniProt Q13233)
[20] = target: MAP3K7 TAB1 (human) (UniProt Q15750+O43318)
[21] = target: MAPK11 (human) (UniProt Q15759)
[22] = target: MAPK14 (human) (UniProt Q16539)
[23] = target: MAPK15 (human) (UniProt Q8TD08)
[24] = target: MAPKAPK5 (human) (UniProt Q8IW41)
[25] = target: MARK1 (human) (UniProt Q9P0L2)
[26] = target: MELK (human) (UniProt Q14680)
[27] = target: MINK1 (human) (UniProt Q8N4C8)
[28] = target: NTRK1 (human) (UniProt P04629)
[29] = target: PRKCZ (human) (UniProt Q05513)
[30] = target: RIPK2 (human) (UniProt O43353)
[31] = test system: ROCK2 (rat); settings: accession and sequence are those of the human protein
[32] = target: RPS6KA3 KD1 KD2 (human) (UniProt P51812)
[33] = target: SRC (human) (UniProt P12931)
[34] = target: STK11 CAB39 STRADA (human) (UniProt Q9Y376+Q7RTN6+Q15831)
[35] = target: TAOK1 (human) (UniProt Q7L7X3)

CLK2 (human), sequence (P49760 whole entry, looked up): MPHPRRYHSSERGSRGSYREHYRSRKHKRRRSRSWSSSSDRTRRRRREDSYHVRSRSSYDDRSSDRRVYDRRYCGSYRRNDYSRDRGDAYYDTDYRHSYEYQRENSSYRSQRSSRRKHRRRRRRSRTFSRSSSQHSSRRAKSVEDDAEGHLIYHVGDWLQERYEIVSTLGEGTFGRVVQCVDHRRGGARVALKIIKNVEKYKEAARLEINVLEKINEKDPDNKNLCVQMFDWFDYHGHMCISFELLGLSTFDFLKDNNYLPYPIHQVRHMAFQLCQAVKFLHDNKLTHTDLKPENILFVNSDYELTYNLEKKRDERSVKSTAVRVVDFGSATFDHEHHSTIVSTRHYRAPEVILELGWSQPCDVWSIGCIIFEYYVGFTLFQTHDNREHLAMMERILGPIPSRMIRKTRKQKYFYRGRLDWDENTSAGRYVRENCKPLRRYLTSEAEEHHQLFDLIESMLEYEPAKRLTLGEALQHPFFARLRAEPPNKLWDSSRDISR
CSK (human), sequence (P41240 whole entry, looked up): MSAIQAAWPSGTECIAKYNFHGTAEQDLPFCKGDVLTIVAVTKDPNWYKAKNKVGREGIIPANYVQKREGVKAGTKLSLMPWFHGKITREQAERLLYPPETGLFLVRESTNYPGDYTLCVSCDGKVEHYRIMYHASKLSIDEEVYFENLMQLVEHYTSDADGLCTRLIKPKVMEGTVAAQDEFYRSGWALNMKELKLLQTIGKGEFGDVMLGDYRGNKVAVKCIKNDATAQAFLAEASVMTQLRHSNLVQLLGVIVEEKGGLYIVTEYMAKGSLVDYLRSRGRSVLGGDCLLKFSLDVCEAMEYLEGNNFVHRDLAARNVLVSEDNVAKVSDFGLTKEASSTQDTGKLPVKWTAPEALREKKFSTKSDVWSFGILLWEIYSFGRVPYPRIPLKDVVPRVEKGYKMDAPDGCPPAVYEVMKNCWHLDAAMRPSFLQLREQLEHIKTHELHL
DYRK3 (human), sequence (O43781 whole entry, looked up): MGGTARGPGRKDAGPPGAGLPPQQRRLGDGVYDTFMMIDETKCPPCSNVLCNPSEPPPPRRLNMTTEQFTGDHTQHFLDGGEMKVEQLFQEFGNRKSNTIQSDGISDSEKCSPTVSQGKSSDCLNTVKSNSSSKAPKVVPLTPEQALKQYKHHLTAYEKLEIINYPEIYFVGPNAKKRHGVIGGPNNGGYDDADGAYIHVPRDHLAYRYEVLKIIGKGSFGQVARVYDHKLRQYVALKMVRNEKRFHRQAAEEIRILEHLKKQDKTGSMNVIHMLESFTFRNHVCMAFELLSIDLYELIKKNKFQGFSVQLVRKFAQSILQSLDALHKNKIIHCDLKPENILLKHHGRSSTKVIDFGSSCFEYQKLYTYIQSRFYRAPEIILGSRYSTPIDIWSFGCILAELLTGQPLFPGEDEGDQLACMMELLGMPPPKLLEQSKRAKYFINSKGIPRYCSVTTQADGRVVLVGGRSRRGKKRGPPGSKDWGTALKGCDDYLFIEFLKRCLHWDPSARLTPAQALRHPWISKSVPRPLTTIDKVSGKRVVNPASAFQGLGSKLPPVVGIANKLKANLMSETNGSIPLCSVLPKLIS
FGFR1 (human), sequence (P11362 whole entry, looked up): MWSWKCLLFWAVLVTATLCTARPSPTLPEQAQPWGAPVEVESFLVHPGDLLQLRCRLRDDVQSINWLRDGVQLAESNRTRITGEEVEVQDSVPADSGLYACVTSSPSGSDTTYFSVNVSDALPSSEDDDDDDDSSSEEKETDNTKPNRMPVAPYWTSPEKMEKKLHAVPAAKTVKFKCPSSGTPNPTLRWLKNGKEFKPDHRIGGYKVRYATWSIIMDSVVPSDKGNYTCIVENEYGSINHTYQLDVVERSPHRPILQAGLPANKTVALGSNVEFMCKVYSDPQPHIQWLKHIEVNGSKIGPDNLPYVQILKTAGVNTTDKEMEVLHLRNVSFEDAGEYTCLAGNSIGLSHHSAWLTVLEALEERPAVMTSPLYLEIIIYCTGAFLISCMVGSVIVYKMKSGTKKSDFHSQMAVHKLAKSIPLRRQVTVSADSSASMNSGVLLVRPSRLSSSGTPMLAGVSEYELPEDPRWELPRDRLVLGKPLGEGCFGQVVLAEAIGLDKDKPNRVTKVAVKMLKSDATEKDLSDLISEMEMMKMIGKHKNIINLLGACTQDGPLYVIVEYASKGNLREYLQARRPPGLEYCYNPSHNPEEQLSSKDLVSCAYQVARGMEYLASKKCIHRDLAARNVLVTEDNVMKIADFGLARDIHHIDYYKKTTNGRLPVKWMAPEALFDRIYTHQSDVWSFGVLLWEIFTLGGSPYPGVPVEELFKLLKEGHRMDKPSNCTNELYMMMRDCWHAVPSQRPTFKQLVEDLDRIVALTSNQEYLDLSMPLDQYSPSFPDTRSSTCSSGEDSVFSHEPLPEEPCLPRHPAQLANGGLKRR
SRC (human), sequence (P12931 whole entry, looked up): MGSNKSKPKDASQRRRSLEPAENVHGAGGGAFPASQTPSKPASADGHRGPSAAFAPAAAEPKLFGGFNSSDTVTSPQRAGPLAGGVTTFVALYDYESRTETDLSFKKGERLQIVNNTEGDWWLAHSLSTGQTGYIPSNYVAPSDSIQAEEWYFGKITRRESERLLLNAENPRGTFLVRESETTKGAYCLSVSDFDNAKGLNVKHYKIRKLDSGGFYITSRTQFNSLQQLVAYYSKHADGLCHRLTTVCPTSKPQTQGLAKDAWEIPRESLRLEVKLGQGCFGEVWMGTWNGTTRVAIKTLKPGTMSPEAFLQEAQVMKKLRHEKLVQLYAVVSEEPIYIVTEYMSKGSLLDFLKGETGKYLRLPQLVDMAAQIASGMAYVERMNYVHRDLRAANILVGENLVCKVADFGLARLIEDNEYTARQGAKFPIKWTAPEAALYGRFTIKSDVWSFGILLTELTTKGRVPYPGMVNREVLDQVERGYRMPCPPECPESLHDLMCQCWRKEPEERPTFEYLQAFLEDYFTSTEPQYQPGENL
FLT1 (human), sequence (P17948 whole entry, looked up): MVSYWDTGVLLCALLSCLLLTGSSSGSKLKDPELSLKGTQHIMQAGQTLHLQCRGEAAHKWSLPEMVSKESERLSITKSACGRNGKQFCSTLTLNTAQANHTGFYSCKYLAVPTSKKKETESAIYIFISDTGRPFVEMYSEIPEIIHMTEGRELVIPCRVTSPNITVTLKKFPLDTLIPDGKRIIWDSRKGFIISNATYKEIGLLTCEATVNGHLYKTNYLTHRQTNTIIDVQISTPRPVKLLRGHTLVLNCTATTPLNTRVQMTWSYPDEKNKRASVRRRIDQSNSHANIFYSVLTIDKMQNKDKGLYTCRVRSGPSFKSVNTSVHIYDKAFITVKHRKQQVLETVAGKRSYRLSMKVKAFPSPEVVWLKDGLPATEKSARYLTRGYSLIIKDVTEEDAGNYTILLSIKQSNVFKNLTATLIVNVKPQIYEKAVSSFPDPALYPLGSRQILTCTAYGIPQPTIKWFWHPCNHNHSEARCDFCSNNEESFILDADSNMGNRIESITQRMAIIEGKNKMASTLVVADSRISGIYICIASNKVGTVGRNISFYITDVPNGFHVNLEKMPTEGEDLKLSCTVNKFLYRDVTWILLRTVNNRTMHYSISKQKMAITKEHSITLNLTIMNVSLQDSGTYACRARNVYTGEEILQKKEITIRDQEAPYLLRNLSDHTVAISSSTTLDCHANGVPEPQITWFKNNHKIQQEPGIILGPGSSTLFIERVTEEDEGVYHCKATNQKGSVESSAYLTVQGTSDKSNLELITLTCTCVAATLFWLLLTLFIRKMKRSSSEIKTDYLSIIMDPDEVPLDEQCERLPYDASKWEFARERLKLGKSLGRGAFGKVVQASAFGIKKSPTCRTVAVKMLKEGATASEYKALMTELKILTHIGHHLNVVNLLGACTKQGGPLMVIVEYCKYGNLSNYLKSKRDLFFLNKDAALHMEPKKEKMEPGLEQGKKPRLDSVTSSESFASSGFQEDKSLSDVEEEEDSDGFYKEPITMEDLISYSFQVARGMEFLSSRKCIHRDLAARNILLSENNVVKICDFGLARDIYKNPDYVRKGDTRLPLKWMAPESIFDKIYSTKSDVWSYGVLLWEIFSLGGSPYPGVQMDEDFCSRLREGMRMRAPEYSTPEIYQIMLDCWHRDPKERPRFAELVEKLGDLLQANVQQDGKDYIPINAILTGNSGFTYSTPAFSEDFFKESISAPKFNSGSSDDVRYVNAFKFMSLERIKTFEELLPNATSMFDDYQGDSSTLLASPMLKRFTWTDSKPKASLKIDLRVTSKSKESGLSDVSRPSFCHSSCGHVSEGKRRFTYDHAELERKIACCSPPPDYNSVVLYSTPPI
PRKCZ (human), sequence (Q05513 whole entry, looked up): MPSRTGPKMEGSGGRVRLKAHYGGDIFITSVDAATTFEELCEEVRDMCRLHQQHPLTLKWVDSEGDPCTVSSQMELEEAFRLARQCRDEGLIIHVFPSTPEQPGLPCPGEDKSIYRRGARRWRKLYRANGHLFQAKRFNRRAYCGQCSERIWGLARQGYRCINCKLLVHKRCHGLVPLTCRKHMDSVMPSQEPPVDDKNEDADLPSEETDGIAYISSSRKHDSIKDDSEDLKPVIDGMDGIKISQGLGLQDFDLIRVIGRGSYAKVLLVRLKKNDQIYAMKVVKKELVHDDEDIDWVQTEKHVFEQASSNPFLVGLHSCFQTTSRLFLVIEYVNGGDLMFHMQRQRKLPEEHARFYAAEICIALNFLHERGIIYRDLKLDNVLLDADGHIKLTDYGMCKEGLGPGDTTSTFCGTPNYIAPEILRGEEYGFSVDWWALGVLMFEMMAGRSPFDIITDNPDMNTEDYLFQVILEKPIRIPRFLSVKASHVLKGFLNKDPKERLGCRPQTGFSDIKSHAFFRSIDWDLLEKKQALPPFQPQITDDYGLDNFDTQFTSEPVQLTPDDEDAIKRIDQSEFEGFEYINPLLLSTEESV

CCCCCc1ccc(/C=C/[C@H](O)[C@@H](CO)NC)cc1
residual activity ([1]; compound 0.1 µM): 85% | residual activity ([1]; compound 1.0 µM): 90% | residual activity ([1]; compound 10.0 µM): 86% | residual activity ([2]; compound 0.1 µM): 114% | residual activity ([2]; compound 1.0 µM): 111% | residual activity ([2]; compound 10.0 µM): 97% | residual activity ([3]; compound 0.1 µM): 97% | residual activity ([3]; compound 1.0 µM): 81% | residual activity ([3]; compound 10.0 µM): 90% | residual activity ([4]; compound 0.1 µM): 106% | residual activity ([4]; compound 1.0 µM): 104% | residual activity ([4]; compound 10.0 µM): 97% | residual activity ([5]; compound 0.1 µM): 104% | residual activity ([5]; compound 1.0 µM): 101% | residual activity ([5]; compound 10.0 µM): 98% | residual activity ([6]; compound 0.1 µM): 88% | residual activity ([6]; compound 1.0 µM): 87% | residual activity ([6]; compound 10.0 µM): 81% | residual activity ([7]; compound 0.1 µM): 93% | residual activity ([7]; compound 1.0 µM): 98% | residual activity ([7]; compound 10.0 µM): 93% | residual activity ([8]; compound 0.1 µM): 103% | residual activity ([8]; compound 1.0 µM): 91% | residual activity ([8]; compound 10.0 µM): 91% | residual activity ([9]; compound 0.1 µM): 115% | residual activity ([9]; compound 1.0 µM): 111% | residual activity ([9]; compound 10.0 µM): 104% | residual activity ([10]; compound 0.1 µM): 95% | residual activity ([10]; compound 1.0 µM): 81% | residual activity ([10]; compound 10.0 µM): 83% | residual activity ([11]; compound 0.1 µM): 83% | residual activity ([11]; compound 1.0 µM): 88% | residual activity ([11]; compound 10.0 µM): 71% | residual activity ([12]; compound 0.1 µM): 92% | residual activity ([12]; compound 1.0 µM): 112% | residual activity ([12]; compound 10.0 µM): 94% | residual activity ([13]; compound 0.1 µM): 118% | residual activity ([13]; compound 1.0 µM): 112% | residual activity ([13]; compound 10.0 µM): 102% | residual activity ([14]; compound 0.1 µM): 87% | residual activity ([14]; compound 1.0 µM): 86% | residual activity ([14]; compound 10.0 µM): 93% | residual activity ([15]; compound 0.1 µM): 107% | residual activity ([15]; compound 10.0 µM): 99% | residual activity ([16]; compound 0.1 µM): 72% | residual activity ([16]; compound 1.0 µM): 66% | residual activity ([16]; compound 10.0 µM): 67% | residual activity ([17]; compound 0.1 µM): 118% | residual activity ([17]; compound 1.0 µM): 98% | residual activity ([17]; compound 10.0 µM): 100% | residual activity ([18]; compound 0.1 µM): 106% | residual activity ([18]; compound 1.0 µM): 92% | residual activity ([18]; compound 10.0 µM): 84% | residual activity ([19]; compound 0.1 µM): 93% | residual activity ([19]; compound 1.0 µM): 99% | residual activity ([19]; compound 10.0 µM): 89% | residual activity ([20]; compound 0.1 µM): 100% | residual activity ([20]; compound 1.0 µM): 108% | residual activity ([20]; compound 10.0 µM): 111% | residual activity ([21]; compound 0.1 µM): 99% | residual activity ([21]; compound 1.0 µM): 106% | residual activity ([21]; compound 10.0 µM): 95% | residual activity ([22]; compound 0.1 µM): 95% | residual activity ([22]; compound 1.0 µM): 87% | residual activity ([22]; compound 10.0 µM): 80% | residual activity ([23]; compound 0.1 µM): 82% | residual activity ([23]; compound 1.0 µM): 86% | residual activity ([23]; compound 10.0 µM): 77% | residual activity ([24]; compound 0.1 µM): 89% | residual activity ([24]; compound 1.0 µM): 99% | residual activity ([24]; compound 10.0 µM): 90% | residual activity ([25]; compound 0.1 µM): 114% | residual activity ([25]; compound 1.0 µM): 112% | residual activity ([25]; compound 10.0 µM): 104% | residual activity ([26]; compound 0.1 µM): 108% | residual activity ([26]; compound 1.0 µM): 99% | residual activity ([26]; compound 10.0 µM): 98% | residual activity ([27]; compound 0.1 µM): 107% | residual activity ([27]; compound 1.0 µM): 93% | residual activity ([27]; compound 10.0 µM): 111% | residual activity ([28]; compound 0.1 µM): 103% | residual activity ([28]; compound 1.0 µM): 110% | residual activity ([28]; compound 10.0 µM): 86% | residual activity ([29]; compound 0.1 µM): 106% | residual activity ([29]; compound 1.0 µM): 108% | residual activity ([29]; compound 10.0 µM): 92% | residual activity ([30]; compound 0.1 µM): 119% | residual activity ([30]; compound 1.0 µM): 95% | residual activity ([30]; compound 10.0 µM): 100% | residual activity ([31]; compound 0.1 µM): 110% | residual activity ([31]; compound 1.0 µM): 94% | residual activity ([31]; compound 10.0 µM): 116% | residual activity ([32]; compound 0.1 µM): 87% | residual activity ([32]; compound 1.0 µM): 95% | residual activity ([32]; compound 10.0 µM): 81% | residual activity ([33]; compound 0.1 µM): 105% | residual activity ([33]; compound 1.0 µM): 100% | residual activity ([33]; compound 10.0 µM): 111% | residual activity ([34]; compound 0.1 µM): 93% | residual activity ([34]; compound 1.0 µM): 89% | residual activity ([34]; compound 10.0 µM): 98% | residual activity ([35]; compound 0.1 µM): 102% | residual activity ([35]; compound 1.0 µM): 108% | residual activity ([35]; compound 10.0 µM): 91%

CN(C)C/C=C/C(=O)Nc1cccc(C(=O)Nc2ccc(Nc3nccc(-c4cccnc4)n3)cc2)c1
residual activity ([1]; compound 0.1 µM): 93% | residual activity ([1]; compound 1.0 µM): 106% | residual activity ([2]; compound 0.1 µM): 94% | residual activity ([2]; compound 1.0 µM): 86% | residual activity ([3]; compound 0.1 µM): 87% | residual activity ([3]; compound 1.0 µM): 35% | residual activity ([4]; compound 0.1 µM): 49% | residual activity ([4]; compound 1.0 µM): 18% | residual activity ([5]; compound 1.0 µM): 103% | residual activity ([6]; compound 0.1 µM): 63% | residual activity ([6]; compound 1.0 µM): 33% | residual activity ([7]; compound 0.1 µM): 81% | residual activity ([7]; compound 1.0 µM): 79% | residual activity ([8]; compound 0.1 µM): 110% | residual activity ([8]; compound 1.0 µM): 125% | residual activity ([9]; compound 0.1 µM): 94% | residual activity ([9]; compound 1.0 µM): 95% | residual activity ([10]; compound 0.1 µM): 59% | residual activity ([10]; compound 1.0 µM): 32% | residual activity ([11]; compound 0.1 µM): 88% | residual activity ([11]; compound 1.0 µM): 56% | residual activity ([12]; compound 0.1 µM): 86% | residual activity ([12]; compound 1.0 µM): 78% | residual activity ([13]; compound 0.1 µM): 113% | residual activity ([14]; compound 1.0 µM): 102% | residual activity ([15]; compound 0.1 µM): 81% | residual activity ([16]; compound 0.1 µM): 86% | residual activity ([16]; compound 1.0 µM): 88% | residual activity ([17]; compound 0.1 µM): 85% | residual activity ([17]; compound 1.0 µM): 77% | residual activity ([18]; compound 0.1 µM): 95% | residual activity ([18]; compound 1.0 µM): 101% | residual activity ([19]; compound 0.1 µM): 85% | residual activity ([19]; compound 1.0 µM): 100% | residual activity ([20]; compound 0.1 µM): 67% | residual activity ([20]; compound 1.0 µM): 39% | residual activity ([21]; compound 0.1 µM): 96% | residual activity ([21]; compound 1.0 µM): 82% | residual activity ([22]; compound 0.1 µM): 98% | residual activity ([22]; compound 1.0 µM): 113% | residual activity ([23]; compound 0.1 µM): 46% | residual activity ([23]; compound 1.0 µM): 20% | residual activity ([24]; compound 0.1 µM): 96% | residual activity ([24]; compound 1.0 µM): 85% | residual activity ([25]; compound 0.1 µM): 91% | residual activity ([25]; compound 1.0 µM): 80% | residual activity ([26]; compound 0.1 µM): 71% | residual activity ([26]; compound 1.0 µM): 48% | residual activity ([27]; compound 0.1 µM): 92% | residual activity ([27]; compound 1.0 µM): 69% | residual activity ([28]; compound 1.0 µM): 82% | residual activity ([29]; compound 0.1 µM): 112% | residual activity ([29]; compound 1.0 µM): 103% | residual activity ([30]; compound 1.0 µM): 42% | residual activity ([31]; compound 0.1 µM): 89% | residual activity ([31]; compound 1.0 µM): 71% | residual activity ([32]; compound 0.1 µM): 80% | residual activity ([32]; compound 1.0 µM): 80% | residual activity ([33]; compound 0.1 µM): 93% | residual activity ([33]; compound 1.0 µM): 72% | residual activity ([34]; compound 0.1 µM): 78% | residual activity ([34]; compound 1.0 µM): 91% | residual activity ([35]; compound 0.1 µM): 96%
